Measurements reported in patent US10183917B2, “Tricyclic compounds and uses thereof in medicine” (Sunshine Lake Pharma Co., Ltd., priority 2015, dated 2019).

How the values were obtained:
[1] = target: nuclear receptor FXR recombinant protein (Homo sapiens (Human), UniProt Q96RI1); experiment: TR-FRET Farnesoid X Receptor Coactivator Assay; type: biochemical; conditions: Fluorescein-SRC2-2, Tb anti-GST antibody, 1 h room temperature
Method: Example 36: TR-FRET Farnesoid X Receptor Coactivator Assay
Purchasing invitrogen PV4833 kits.
First, the required amount of the compound was weighed and dissolved in 100% DMSO at the maximum concentration of 3000 μM. The solution at the maximum concentration was diluted by 3-fold serial dilution in DMSO to get 10 concentrations;
Second, the above prepared solutions of different concentrations were diluted to 100-fold with a buffer supplied with the kit, followed by mixing and then 10 μL of the diluted solution was added to a 384 well plate;
Third, nuclear receptor FXR recombinant protein was diluted with a buffer to give a concentration of 4×, and 5 μL of the diluent was added to the 384 well plate of second step;
Fourth, Fluorescein-SRC2-2 and Tb anti-GST antibody were diluted with a buffer to give a concentration of 4× respectively. Then two reagents were mixed together, and 10 μL of the mixture was added to the 384 well plate of third step;
Finally, the solution of the 384 well above was mixed uniformly by centrifuging, and then incubated at room temperature for 1 h. Then the TR-FRET Endpoint was used for measuring the solution at wavelengths of 520 nm, 495 nm and 337 nm. EC50 values were calculated according to the measured value of ER=520 nm/495 nm.

[2] = Pharmacokinetics test in SD rats (iv and po); type: in vivo
Method: Example 37: Pharmacokinetics Test
Experimental animals: six healthy adult male SD rats (purchased from Hunan Slack King of Laboratory Animal Co. Ltd.) were divided into two groups, three rats in each group, and the two grops were given intravenous injection and oral administration respectively.
Drug preparation: a quantity of a compound of the present invention was weighed, and 5% DMSO, 10% Kolliphor HS15 and 85% saline (0.9%) were added to give target concentrations of the compound solution.
Administration and sample collection: animals were fasting for 12 h until administered, eating 3 h after the administration. Hind legs of SD rats of one group were given intravenous injection (IV, 1 mg/kg) and SD rats of the other group were given oral administration (PO, 5 mg/kg) respectively. Then blood was collected in the rat tail vein at the time point 0, 0.083, 0.25, 0.5, 1, 2, 4, 6, 8, 24 h respectively, and the blood volume was about 200-400 μL/time points. After the collection of whole blood at each time point, the colleted blood was set in K2EDTA anticoagulant tube, and the tube was placed in the incubator with ice packs. All samples were centrifuged for 5 min at 4° C. at 4600 r/min within 15 min. Plasma was separated and colleted. The concentrations of different compounds in the plasma of the rats after adminstration were measured using LC/MS/MS method, and the pharmacokinetic parameters were calculated according to the curve of the drug concentration-time.
Pharmacokinetic properties of the compounds of the present invention were tested by the experiment above, and the pharmacokinetic parameters were shown in Table 3.

[3] = male, SD, rat, in vivo, iv, 1 mg/kg
[4] = male, SD, rat, in vivo, po, 5 mg/kg

Sequence of nuclear receptor FXR recombinant protein (Q96RI1 258-486, other chains not shown): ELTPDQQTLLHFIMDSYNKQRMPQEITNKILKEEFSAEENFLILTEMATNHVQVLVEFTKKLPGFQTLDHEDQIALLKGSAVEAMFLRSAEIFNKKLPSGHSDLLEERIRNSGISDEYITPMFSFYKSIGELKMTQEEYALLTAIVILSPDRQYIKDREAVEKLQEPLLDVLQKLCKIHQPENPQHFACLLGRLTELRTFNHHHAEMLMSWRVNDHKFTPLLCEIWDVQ

O=C(O)c1ccc2c(c1)Oc1ccc(OCc3c(-c4c(Cl)cccc4Cl)noc3C3CC3)cc1CC2 [Example 1, 8-((5-cyclopropyl-3-(2,6-dichlorophenyl)isoxazol-4-yl)methoxy)-10,11-dihydrodibenzo[b,f]oxepine-3-carboxylic acid]
EC50 [1]: 18 nM

O=C(O)c1ccc2c(c1)C(=O)c1ccc(OCc3c(-c4c(Cl)cccc4Cl)noc3C3CC3)cc1CC2 [Example 2, 8-((5-cyclopropyl-3-(2,6-dichlorophenyl)isoxazol-4-yl)methoxy)-5-oxo-10,11-dihydro-5H-dibenzo[a,d][7]annulene-3-carboxylic acid]
EC50 [1]: 4 nM | AUCINF ([2]; male SD rats, iv 1 mg/kg): 1210 ng·h/mL | AUClast ([2]; male SD rats, iv 1 mg/kg): 1180 ng·h/mL | Cl ([2]; male SD rats, iv 1 mg/kg): 14 mL/min/kg | Cmax ([2]; male SD rats, iv 1 mg/kg): 2560 ng/mL | MRTINF ([2]; male SD rats, iv 1 mg/kg): 63 min | T1/2 ([2]; male SD rats, iv 1 mg/kg): 109 min | Tmax ([2]; male SD rats, iv 1 mg/kg): 4.8 min | Vss ([2]; male SD rats, iv 1 mg/kg): 0.86 L/kg | AUCINF ([2]; male SD rats, po 5 mg/kg): 11300 ng·h/mL | AUClast ([2]; male SD rats, po 5 mg/kg): 11200 ng·h/mL | Cmax ([2]; male SD rats, po 5 mg/kg): 9970 ng/mL | MRTINF ([2]; male SD rats, po 5 mg/kg): 141 min | T1/2 ([2]; male SD rats, po 5 mg/kg): 250 min | Tmax ([2]; male SD rats, po 5 mg/kg): 19.8 min | F ([2]; male SD rats, po 5 mg/kg vs iv 1 mg/kg): 189.7%

O=C(O)c1ccc2c(c1)Oc1ccc(OCc3c(-c4c(Cl)cccc4Cl)noc3C3CC3)nc1CC2 [Example 3, 2-((5-cyclopropyl-3-(2,6-dichlorophenyl)isoxazol-4-yl)methoxy)-10,11-dihydrobenzo[6,7]oxepino[3,2-b]pyridine-7-carboxylic acid]
EC50 [1]: 37 nM

O=C(O)c1ccc2c(c1)Oc1cnc(OCc3c(-c4c(Cl)cccc4Cl)noc3C3CC3)cc1CC2 [Example 4, 3-((5-cyclopropyl-3-(2,6-dichlorophenyl)isoxazol-4-yl)methoxy)-5,6-dihydrobenzo[6,7]oxepino[2,3-c]pyridine-9-carboxylic acid]
EC50 [1]: 46 nM | F ([2]; male, SD, rat, in vivo): 44.7% | AUC(0-inf) [2, 3]: 878 ng·h/mL | AUC(0-t) [2, 3]: 877 ng·h/mL | Cmax [2, 3]: 1900 ng/mL | MRT inf [2, 3]: 24 min | Tmax [2, 3]: 4.8 min | Vd [2, 3]: 0.45 L/kg | clearance [2, 3]: 19 mL/min/kg | half-life [2, 3]: 30 min | AUC(0-inf) [2, 4]: 1980 ng·h/mL | AUC(0-t) [2, 4]: 1960 ng·h/mL | Cmax [2, 4]: 1800 ng/mL | MRT inf [2, 4]: 82.2 min | Tmax [2, 4]: 19.8 min | half-life [2, 4]: 294 min

O=C(O)c1ccc2c(c1)Oc1ccc(OCc3c(-c4c(Cl)cccc4Cl)noc3C3CC3)cc1S(=O)(=O)C2 [Example 5, 8-((5-cyclopropyl-3-(2,6-dichlorophenyl)isoxazol-4-yl)methoxy)-11H-dibenzo[b,f][1,4]oxathiepine-3-carboxylic acid-10,10-dioxide]
EC50 [1]: 6 nM | F ([2]; male, SD, rat, in vivo): 62.6% | AUC(0-inf) [2, 3]: 941 ng·h/mL | AUC(0-t) [2, 3]: 926 ng·h/mL | Cmax [2, 3]: 2420 ng/mL | MRT inf [2, 3]: 45.6 min | Tmax [2, 3]: 4.8 min | Vd [2, 3]: 0.82 L/kg | clearance [2, 3]: 18 mL/min/kg | half-life [2, 3]: 93.6 min | AUC(0-inf) [2, 4]: 3350 ng·h/mL | AUC(0-t) [2, 4]: 2900 ng·h/mL | Cmax [2, 4]: 1300 ng/mL | MRT inf [2, 4]: 514 min | Tmax [2, 4]: 19.8 min | half-life [2, 4]: 702 min

O=C(O)c1ccc2c(c1)Oc1ccc(OCc3c(-c4c(Cl)cccc4Cl)noc3C3CC3)cc1SC2 [Example 6, 8-((5-cyclopropyl-3-(2,6-dichlorophenyl)isoxazol-4-yl)methoxy)-11H-dibenzo [b,f][1,4]oxathiepine-3-carboxylic acid]
EC50 [1]: 55 nM

O=C(O)c1ccc2c(c1)Oc1ccc(OCc3c(-c4c(Cl)cccc4Cl)noc3C3CC3)cc1[S+]([O-])C2 (stereo not drawn) [Example 7, 8-((5-cyclopropyl-3-(2,6-dichlorophenyl)isoxazol-4-yl)methoxy)-11H-dibenzo [b,f][1,4]oxathiepine-3-carboxylic acid-10-oxide]
EC50 [1]: 15 nM

O=C(O)c1ccc2c(c1)C1(CC1)c1ccc(OCc3c(-c4c(Cl)cccc4Cl)noc3C3CC3)cc1CC2 [Example 9, 2′-((5-cyclopropyl-3-(2,6-dichlorophenyl)isoxazol-4-yl)methoxy)-10′,11′-dihydrospiro[cyclopropane-1,5′-dibenzo[a,d][7]annulene]-7′-carboxylic acid]
EC50 [1]: 38 nM

O=C(O)c1ccc2c(c1)S(=O)(=O)c1ccc(OCc3c(-c4c(Cl)cccc4Cl)noc3C3CC3)cc1CC2 [Example 11, 8-((5-cyclopropyl-3-(2,6-dichlorophenyl)isoxazol-4-yl)methoxy)-10,11-dihydrodibenzo[b,f]thiepine-3-carboxylic acid-5,5-dioxide]
EC50 [1]: 56 nM

O=C(O)c1ccc2c(c1)CCc1ccc(OCc3c(-c4c(Cl)cccc4Cl)noc3C3CC3)cc1O2 [Example 15, 7-((5-cyclopropyl-3-(2,6-dichlorophenyl)isoxazol-4-yl)methoxy)-10,11-dihydrodibenzo[b,f]oxepine-2-carboxylic acid]
EC50 [1]: 35 nM

CC(C)c1cnn(-c2c(Cl)cccc2Cl)c1COc1ccc2c(n1)CCc1ccc(C(=O)O)cc1O2 [Example 17, 2-((1-(2,6-dichlorophenyl)-4-isopropyl-1H-pyrazol-5-yl)methoxy)-10,11-dihydrobenzo[6,7]oxepino[3,2-b]pyridine-7-carboxylic acid]
EC50 [1]: 23 nM | F ([2]; male, SD, rat, in vivo): 67.7% | AUC(0-inf) [2, 3]: 1840 ng·h/mL | AUC(0-t) [2, 3]: 1840 ng·h/mL | Cmax [2, 3]: 4280 ng/mL | MRT inf [2, 3]: 19.2 min | Tmax [2, 3]: 4.8 min | Vd [2, 3]: 0.89 L/kg | clearance [2, 3]: 50 mL/min/kg | half-life [2, 3]: 25.8 min | AUC(0-inf) [2, 4]: 6240 ng·h/mL | AUC(0-t) [2, 4]: 6230 ng·h/mL | Cmax [2, 4]: 5960 ng/mL | MRT inf [2, 4]: 50.4 min | Tmax [2, 4]: 19.8 min | half-life [2, 4]: 47.4 min

CS(=O)(=O)NC(=O)c1ccc2c(c1)Oc1ccc(OCc3c(-c4c(Cl)cccc4Cl)noc3C3CC3)nc1CC2 [Example 19, 2-((5-cyclopropyl-3-(2,6-dichlorophenyl)isoxazol-4-yl)methoxy)-N-(methylsulfonyl)-10,11-dihydrobenzo[6,7]oxepino[3,2-b]pyridine-7-carboxamide]
EC50 [1]: 6 nM

CC(C)c1nnn(-c2c(Cl)cccc2Cl)c1COc1ccc2c(c1)CCc1ccc(C(=O)O)cc1C2=O [Example 27, 8-((1-(2,6-dichlorophenyl)-4-isopropyl-1H-1,2,3-triazol-5-yl)methoxy)-5-oxo-10,11-dihydro-5H-dibenzo[a,d][7]annulene-3-carboxylic acid]
EC50 [1]: 12 nM

O=C(NCCS(=O)(=O)O)c1ccc2c(c1)Oc1ccc(OCc3c(-c4c(Cl)cccc4Cl)noc3C3CC3)nc1CC2 [Example 29, 2-(2-((5-cyclopropyl-3-(2,6-dichlorophenyl)isoxazol-4-yl)methoxy)-10,11-dihydrobenzo[6,7]oxepino[3,2-b]pyridine-7-carboxamido)ethanesulfonic acid]
EC50 [1]: 11 nM

O=C(O)c1ccc2c(c1)Oc1ccc(OCc3c(-c4c(Cl)cccc4Cl)noc3C3CC3)nc1C=C2 [Example 30, 2-((5-cyclopropyl-3-(2,6-dichlorophenyl)isoxazol-4-yl)methoxy)benzo[6,7]oxepino[3,2-b]pyridine-7-carboxylic acid]
EC50 [1]: 27 nM

O=C(O)c1ccc2c(c1)Oc1ccc(OCc3c(-c4c(Cl)cccc4Cl)noc3C3CC3)nc1CCC2 [Example 31, 3-((5-cyclopropyl-3-(2,6-dichlorophenyl)isoxazol-4-yl)methoxy)-6,7-dihydro-5H-benzo[7,8]oxocino[3,2-b]pyridine-10-carboxylic acid]
EC50 [1]: 56 nM

CS(=O)(=O)c1ccc2c(c1)Oc1ccc(OCc3c(-c4c(Cl)cccc4Cl)noc3C3CC3)nc1CC2 [Example 32, 2-((5-cyclopropyl-3-(2,6-dichlorophenyl)isoxazol-4-yl)methoxy)-7-(methylsulfonyl)-10,11-dihydrobenzo[6,7]oxepino[3,2-b]pyridine]
EC50 [1]: 54 nM

O=C(O)c1cnc2c(c1)Oc1cnc(OCc3c(-c4c(Cl)cccc4Cl)noc3C3CC3)cc1CC2 [Example 33, 8-((5-cyclopropyl-3-(2,6-dichlorophenyl)isoxazol-4-yl)methoxy)-10,11-dihydrooxepino[3,2-b:7,6-c′]dipyridine-3-carboxylic acid]
EC50 [1]: 18 nM
